Assays:
PKAa = biological target: T1, PKAa (Homo sapiens, UniProt P17612); assay: CEREP protein kinase assay; type: biochemical
T1 construct: purchased CEREP Panlabs (Eurofins)

[1] = test system: P70S6K T389 phosphorylation in NCI-H460; assay: Western analysis after overnight treatment in tissue culture; type: cell-based, human; conditions: 0 to 20 μM, RPMI media
Experimental: (§1) The levels of total actin, AMPKα and P70S6K are also shown. […] Full images and the croppings used in this figure are shown in Supplemental Figures S4–S13.
(§2) Antibodies were purchased as follows: pAMPK Thr172 (Cell Signaling #2535), p-p70S6 Thr389 (Cell Signaling #9205), total p70S6 (Cell Signaling #2708), total AMPKα (Cell Signaling #2793) and Actin (Sigma #A5441). Frozen tumor samples were lysed with 500 µL ice cold lysis buffer plus Halt protease inhibitor (ThermoFisher #78430) using a Power Gen 125 tissue grinder (Fisher Scientific). Western blots were run as described in the supplemental material.
(§3) Western Blots: Lysis buffer is 0.01 mg/mL Leupeptin, 0.01 mg/mL Trypsin-Chymotrypsin, 0.01 mg/mL TPCK, 0.1 mg/mL Aprotinin, 60 mM β-Gly PO4, 1% Triton-100, 25 mM Tris pH 7.5, 2.5 µM Na2Pyrophosphate, 150 mM NaCl, 0.76 mg/mL TAME, 6.2 mg/mL PNPP, 0.8 mg/mL Benzamidine, 0.2 mg/mL Na3V04, 0.42 mg/mL NaF, 0.5 mg/mL PMSF or PEFA, 1 mM DTT, 15 mM EDTA pH 8.0, 5 mM EGTA pH 8.0, 1 µM Okadaic acid, and 1 µM microcystine. RNA and DNA were degraded by addition of Benzonase (Novagen) with a 30 min incubation on ice. Lysates were cleared by centrifugation at 4 °C for 10 min at 16,000 x g. Protein content was measured using Pierce BCA protein assay kit (Thermo Scientific). Twenty ug of total protein was resolved on a 4-20% Tris HCl Criterion XT precast gel (BioRad) at 100 V for 90 minutes. Transfer electrophoresed proteins to a 0.2 µm nitrocellulose membrane using Trans Blot Turbo System (BioRad). Block membranes for 1 hr at RT in Odyssey blocking buffer (LiCor). Probe overnight 4°C for primary antibodies. Wash blots 3 x 5 min in 20 mL PBS-0.1% Tween-20.

[2] = test system: AMPK T172 phosphorylation in MDA-MB-231met2; assay: as above; type: cell-based, human; conditions: 0 to 20 μM, RPMI media
Experimental: as §1, §2, §3

[3] = test system: AMPK T172 phosphorylation in NCI-H460; assay: as above; type: cell-based, human; conditions: 0 to 20 μM, RPMI media
Experimental: as §1, §2, §3

[4] = test system: P70S6K T389 phosphorylation in MDA-MB-231met2; assay: as above; type: cell-based, human; conditions: 0 to 20 μM, RPMI media
Experimental: as §1, §2, §3

## O=c1[nH]ccc2cc(F)c(NS(=O)(=O)c3ccc(N4CC[C@@H](O)C4)s3)cc12 [LSN3213128, N-(6-Fluoro-1-oxo-1,2-dihydroisoquinolin-7-yl)-5-[(3R)-3-hydroxypyrrolidin-1-yl]thiophene-2-sulfonamide]
PKAa; @ 0.2 uM
  inhibition at 0.2 µM: -7.44%
PKAa; @ 2 uM
  inhibition at 2 µM: -0.808%
PKAa; @ 20 uM
  inhibition at 20 µM: 3.8%
[1]
  phosphorylation of P70S6K T389: inhibits the phosphorylation
[2]
  AMPK T172 phosphorylation: expected increase
[3]
  phosphorylated AMPK T172: not increased
[4]
  P70S6K T389 phosphorylation: corresponding decrease

— article PMC6193938, “Characterization of a novel AICARFT inhibitor which potently elevates ZMP and has anti-tumor activity in murine models” (Scientific Reports, 2018)
